One compound from PMC3119665, “A New Drug Design Targeting the Adenosinergic System for Huntington's Disease” (PLoS ONE, 2011) can be followed below.

For one experiment, the system named is Phosphodiesterase PDE4. Description: Radioligand binding panel (Table S1). To be noted: 10 μM T1-11, n 2. On the set-up: species or system human.
For experiment [1], the target named is T1, Transporter, Serotonin (5-Hydroxytryptamine) (SERT) (Homo sapiens, UniProt P31645).
T1 construct: purchased MDS Pharma Services Taiwan
As to the kind of experiment: Radioligand binding panel (Table S1). Particulars: 10 μM T1-11, n 2.

Experiment [2] addresses T2, Serotonin (5-Hydroxytryptamine) 5-HT1B (Rattus norvegicus, UniProt P28564).
T2 construct: purchased MDS Pharma Services Taiwan
Description: Radioligand binding panel (Table S1). To be noted: 10 μM T1-11, n 2.

Another experiment has as its target T3, human A3R (Homo sapiens, UniProt P0DMS8).
T3 construct: host or cells: CHO-K1
As to the kind of experiment: GTPγS binding assay. The experiment is classed as biochemical. Here is the method:
The GTPγS binding assay was conducted by MDS Pharma Services Taiwan using a previously described protocol with slight modifications. In brief, membrane proteins collected from Chinese hamster ovary (CHO-K1) cells expressing the human A3R (5∼10 µg per reaction) were incubated with the indicated drug and ^35S-GTPγS (0.1 nM) in a total volume of 500 µl for 30 min at 30°C. The reaction buffer was composed of 20 mM HEPES (pH 7.4), 100 mM NaCl, 10 mM MgCl2, 1 mM DTT, and 1 mM EDTA. The reaction was terminated by filtration over GF/B glass fibers and washed with the same reaction buffer. Relative GTPγS binding was defined as the percentage of ^35S-GTPγS binding when compared to that of a selective agonist of the A3R (2-Cl-IB-MECA, 3 µM) under the same binding conditions.
Supplementary file pone.0020934.s004.tif: Figure S4 T1-11 binds to the A3 adenosine receptor (A3R) without evoking a significant binding of GTP. Membrane fractions collected from CHO-K1 cells expressing the human A3R were incubated with T1-11 at the indicated concentration and ^35S-GTPγS (0.1 nM) for 30 min at 30°C. Relative GTPγS binding was defined as the percentage of ^35S-GTPγS binding when compared with a selective agonist of the A3R (2-Cl-IB-MECA, 3 µM). (TIF) Click here for additional data file.

In experiment [3] the target is T4, Serotonin (5-Hydroxytryptamine) 5-HT3 (Homo sapiens, UniProt P46098).
T4 construct: purchased MDS Pharma Services Taiwan
As to the kind of experiment: Radioligand binding panel (Table S1). To be noted: 10 μM T1-11, n 2.

A further experiment concerns the target T5, Opiate κ (OP2, KOP) (Homo sapiens, UniProt P41145).
T5 construct: purchased MDS Pharma Services Taiwan
Description: Radioligand binding panel (Table S1). Particulars: 10 μM T1-11, n 2.

The subject of another experiment is mutant Htt aggregates. As to the kind of experiment: Striatal Htt aggregates (filter retardation assay, immunofluorescence). The experiment is classed as in vivo. Particulars: R6/2 mice, 12 weeks old, 0.05 mg/ml in drinking water. As to the method:
SDS-insoluble mutant Htt aggregates were detected and quantified as described. A filter retardation assay was performed as described previously. Blots were blocked with 5% skim milk in phosphate-buffered saline (PBS) and incubated with an anti-Htt antibody (EM48, 1∶500; Chemicon International, Temecula, CA, USA) at 4°C overnight followed by the corresponding secondary antibody for 1 h at room temperature. Immunoreactive bands were detected by enhanced chemiluminescence (Pierce) and recorded using Kodak XAR-5 film.
Coronal serial sections (20 µm) containing the striatum (interaural 5.34 mm/bregma 1.54 mm to interaural 3.7 mm/bregma −0.1 mm) were immunohistochemically stained as described previously. Brain sections were blocked with normal goat serum and incubated overnight with an anti-Htt antibody (EM48, 1∶500) at 4°C, followed by a 2 h-incubation with a goat anti-mouse IgG conjugated to Alexa Fluor® 568 at room temperature. The nuclei were stained with Hoechst 33258. The patterns of immunostaining were analyzed with a laser confocal microscope (LSM510, Carl Zeiss MicroImaging Inc, Germany). Five different brain sections of each animal were analyzed. At least 2000 cells from each animal were used to quantify the sizes of mHtt aggregates using ImageJ software (http://rsbweb.nih.gov/ij/; Research Services Branch of the National Institute of Mental Health, Bethesda, MD, USA).

The subject of experiment [4] is Glutamate, NMDA, Phencyclidine. Description: Radioligand binding panel (Table S1). On the set-up: species or system rat. To be noted: 10 μM T1-11, n 2.
The target in another experiment is T6, Angiotensin AT1 (Homo sapiens, UniProt P30556).
T6 construct: purchased MDS Pharma Services Taiwan
Description: Radioligand binding panel (Table S1). To be noted: 10 μM T1-11, n 2.

Experiment [5] deals with Glutamate, NMDA, Polyamine. As to the kind of experiment: Radioligand binding panel (Table S1). On the set-up: species or system rat. Particulars: 10 μM T1-11, n 2.
The subject of experiment [6] is Vascular Endothelial Growth Factor (VEGF). As to the kind of experiment: Radioligand binding panel (Table S1). On the set-up: species or system human. Particulars: 10 μM T1-11, n 2.
A further experiment deals with T7, Vasopressin V1A (Homo sapiens, UniProt P37288).
T7 construct: purchased MDS Pharma Services Taiwan
As to the kind of experiment: Radioligand binding panel (Table S1). To be noted: 10 μM T1-11, n 2.

In experiment [7] the target is T8, N-Formyl Peptide Receptor-like, FPRL1 (Homo sapiens, UniProt P25090).
T8 construct: purchased MDS Pharma Services Taiwan
Description: Radioligand binding panel (Table S1). Particulars: 10 μM T1-11, n 2.

The target of experiment [8] is T9, Epidermal Growth Factor (EGF) (Homo sapiens, UniProt P00533).
T9 construct: purchased MDS Pharma Services Taiwan
Description: Radioligand binding panel (Table S1). To be noted: 10 μM T1-11, n 2.

The target of experiment [9] is T10, Phosphodiesterase PDE10A1 (Homo sapiens, UniProt Q9Y233).
T10 construct: purchased MDS Pharma Services Taiwan
As to the kind of experiment: Radioligand binding panel (Table S1). To be noted: 10 μM T1-11, n 2.

Experiment [10] deals with GABAA, Benzodiazepine, Central, Flunitrazepam. Description: Radioligand binding panel (Table S1). Further details: species or system rat. To be noted: 10 μM T1-11, n 2.
The target of another experiment is T11, Dopamine D4.7 (Homo sapiens, UniProt P21917, INS283GLPPDPCGPDCAPPAPGLPQDPCGPDCAPPAPGLPRGPCGPDCAPPAP/S284G).
T11 construct: purchased MDS Pharma Services Taiwan
As to the kind of experiment: Radioligand binding panel (Table S1). To be noted: 10 μM T1-11, n 2.

The next experiment addresses T12, Dopamine D4.4 (Homo sapiens, UniProt P21917).
T12 construct: purchased MDS Pharma Services Taiwan
Description: Radioligand binding panel (Table S1). To be noted: 10 μM T1-11, n 2.

The next experiment concerns GABAA, Non-Selective. Description: Radioligand binding panel (Table S1). Further details: species or system rat. To be noted: 10 μM T1-11, n 2.
For a further experiment, the target named is T13, Melanocortin MC5 (Homo sapiens, UniProt P33032).
T13 construct: purchased MDS Pharma Services Taiwan
As to the kind of experiment: Radioligand binding panel (Table S1). Particulars: 10 μM T1-11, n 2.

The target in experiment [11] is T14, Serotonin (5-Hydroxytryptamine) 5-HT2B (Homo sapiens, UniProt P41595).
T14 construct: purchased MDS Pharma Services Taiwan
Description: Radioligand binding panel (Table S1). Particulars: 10 μM T1-11, n 2.

Experiment [12] relates to Transforming Growth Factor-β (TGF-β). Description: Radioligand binding panel (Table S1). Particulars: 10 μM T1-11, n 2. On the set-up: species or system mouse.
Another experiment concerns the target T15, Angiotensin AT2 (Homo sapiens, UniProt P50052).
T15 construct: purchased MDS Pharma Services Taiwan
As to the kind of experiment: Radioligand binding panel (Table S1). Particulars: 10 μM T1-11, n 2.

T3 sequence (P0DMS8 whole entry): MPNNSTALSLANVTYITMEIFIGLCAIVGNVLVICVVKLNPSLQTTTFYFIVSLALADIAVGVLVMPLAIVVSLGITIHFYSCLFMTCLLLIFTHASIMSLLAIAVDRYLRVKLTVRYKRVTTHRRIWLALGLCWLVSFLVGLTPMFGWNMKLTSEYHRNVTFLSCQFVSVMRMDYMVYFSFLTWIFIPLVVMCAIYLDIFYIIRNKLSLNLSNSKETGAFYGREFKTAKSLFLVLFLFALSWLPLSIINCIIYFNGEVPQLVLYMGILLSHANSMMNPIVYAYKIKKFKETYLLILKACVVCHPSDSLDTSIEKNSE
T4 sequence (P46098 24-478): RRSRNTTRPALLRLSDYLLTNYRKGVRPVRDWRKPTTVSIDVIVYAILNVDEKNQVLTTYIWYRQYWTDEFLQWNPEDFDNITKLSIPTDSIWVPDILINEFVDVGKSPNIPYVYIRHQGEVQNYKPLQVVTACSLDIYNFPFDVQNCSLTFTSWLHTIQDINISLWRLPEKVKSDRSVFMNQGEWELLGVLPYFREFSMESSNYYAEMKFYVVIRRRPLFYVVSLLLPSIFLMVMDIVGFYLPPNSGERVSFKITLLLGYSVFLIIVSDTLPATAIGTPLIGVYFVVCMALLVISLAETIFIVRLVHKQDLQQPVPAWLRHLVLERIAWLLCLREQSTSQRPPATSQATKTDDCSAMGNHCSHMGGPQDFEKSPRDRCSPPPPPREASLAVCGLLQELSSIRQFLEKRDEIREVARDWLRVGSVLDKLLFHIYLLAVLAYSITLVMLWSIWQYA
T9 sequence (P00533 25-1210): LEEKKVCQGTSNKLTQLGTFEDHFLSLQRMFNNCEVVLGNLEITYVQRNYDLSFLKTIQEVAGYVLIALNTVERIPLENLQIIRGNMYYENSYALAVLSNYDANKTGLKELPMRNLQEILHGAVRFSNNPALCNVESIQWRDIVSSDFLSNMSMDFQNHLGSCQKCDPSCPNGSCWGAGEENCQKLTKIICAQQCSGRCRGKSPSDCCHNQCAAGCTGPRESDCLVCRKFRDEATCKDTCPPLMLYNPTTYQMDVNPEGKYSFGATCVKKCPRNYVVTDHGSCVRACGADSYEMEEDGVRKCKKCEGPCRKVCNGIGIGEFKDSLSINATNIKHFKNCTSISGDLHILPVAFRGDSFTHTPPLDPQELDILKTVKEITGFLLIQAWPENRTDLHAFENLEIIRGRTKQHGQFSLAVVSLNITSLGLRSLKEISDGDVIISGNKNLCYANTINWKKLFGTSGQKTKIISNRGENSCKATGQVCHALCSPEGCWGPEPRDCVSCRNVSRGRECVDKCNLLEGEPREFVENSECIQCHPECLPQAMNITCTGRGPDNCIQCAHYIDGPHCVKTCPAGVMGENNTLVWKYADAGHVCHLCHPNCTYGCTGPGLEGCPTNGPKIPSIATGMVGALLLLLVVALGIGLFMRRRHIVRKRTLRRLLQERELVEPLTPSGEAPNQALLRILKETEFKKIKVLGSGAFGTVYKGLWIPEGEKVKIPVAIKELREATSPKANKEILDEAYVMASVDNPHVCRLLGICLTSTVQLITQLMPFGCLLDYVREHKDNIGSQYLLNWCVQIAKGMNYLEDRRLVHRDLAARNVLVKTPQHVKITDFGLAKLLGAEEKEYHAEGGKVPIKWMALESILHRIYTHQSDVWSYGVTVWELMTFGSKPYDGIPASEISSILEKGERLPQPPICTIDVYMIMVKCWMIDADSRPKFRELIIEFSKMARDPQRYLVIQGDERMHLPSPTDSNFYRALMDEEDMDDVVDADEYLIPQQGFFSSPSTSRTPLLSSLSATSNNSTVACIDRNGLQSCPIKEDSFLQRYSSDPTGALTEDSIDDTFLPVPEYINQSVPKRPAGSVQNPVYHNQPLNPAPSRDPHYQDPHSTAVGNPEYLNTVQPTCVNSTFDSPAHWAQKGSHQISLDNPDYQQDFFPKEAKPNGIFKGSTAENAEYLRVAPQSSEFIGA
T15 sequence (P50052 whole entry): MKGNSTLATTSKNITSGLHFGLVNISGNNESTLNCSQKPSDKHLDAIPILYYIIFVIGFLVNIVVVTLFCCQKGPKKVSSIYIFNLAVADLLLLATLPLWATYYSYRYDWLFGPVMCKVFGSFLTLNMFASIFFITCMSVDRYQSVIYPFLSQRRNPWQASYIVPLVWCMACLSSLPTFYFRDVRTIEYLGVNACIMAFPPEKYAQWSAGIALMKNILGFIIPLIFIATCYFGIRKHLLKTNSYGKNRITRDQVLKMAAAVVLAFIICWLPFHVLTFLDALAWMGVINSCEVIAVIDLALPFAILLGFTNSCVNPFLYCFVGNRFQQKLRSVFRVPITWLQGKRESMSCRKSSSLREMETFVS
T5 sequence (P41145 whole entry): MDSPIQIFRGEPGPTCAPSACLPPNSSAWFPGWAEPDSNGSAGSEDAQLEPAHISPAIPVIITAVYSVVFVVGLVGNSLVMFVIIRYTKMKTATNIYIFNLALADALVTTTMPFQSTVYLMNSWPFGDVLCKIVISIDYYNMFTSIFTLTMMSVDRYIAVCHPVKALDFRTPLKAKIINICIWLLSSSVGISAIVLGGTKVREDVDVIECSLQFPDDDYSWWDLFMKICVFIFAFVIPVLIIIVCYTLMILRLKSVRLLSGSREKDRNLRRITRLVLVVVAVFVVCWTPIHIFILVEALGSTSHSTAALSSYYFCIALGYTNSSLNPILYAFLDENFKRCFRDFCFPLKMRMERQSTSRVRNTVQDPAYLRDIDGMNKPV
T7 sequence (P37288 whole entry): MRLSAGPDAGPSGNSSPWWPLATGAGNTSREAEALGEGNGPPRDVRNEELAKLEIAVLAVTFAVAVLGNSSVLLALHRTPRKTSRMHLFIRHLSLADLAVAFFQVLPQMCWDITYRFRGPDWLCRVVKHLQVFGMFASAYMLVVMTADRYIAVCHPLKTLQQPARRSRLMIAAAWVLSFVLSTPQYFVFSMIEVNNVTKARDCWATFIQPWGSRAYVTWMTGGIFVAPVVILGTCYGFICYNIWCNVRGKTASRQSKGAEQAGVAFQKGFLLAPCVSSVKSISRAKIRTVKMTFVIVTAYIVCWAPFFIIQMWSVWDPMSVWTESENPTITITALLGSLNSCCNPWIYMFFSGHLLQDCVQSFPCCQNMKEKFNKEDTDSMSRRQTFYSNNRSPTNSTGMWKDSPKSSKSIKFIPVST
T6 sequence (P30556 whole entry): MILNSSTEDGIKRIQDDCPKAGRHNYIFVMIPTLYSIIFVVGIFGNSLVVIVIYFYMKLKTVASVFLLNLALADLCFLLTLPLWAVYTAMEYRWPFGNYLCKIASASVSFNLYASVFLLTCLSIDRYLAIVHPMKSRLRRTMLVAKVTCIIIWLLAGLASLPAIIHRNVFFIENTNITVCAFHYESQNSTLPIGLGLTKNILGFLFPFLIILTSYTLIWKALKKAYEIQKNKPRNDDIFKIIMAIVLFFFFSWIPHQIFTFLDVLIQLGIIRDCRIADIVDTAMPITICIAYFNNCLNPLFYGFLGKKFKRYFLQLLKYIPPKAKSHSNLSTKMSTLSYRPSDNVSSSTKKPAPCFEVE
T10 sequence (Q9Y233 1-779 isoform Q9Y233-1): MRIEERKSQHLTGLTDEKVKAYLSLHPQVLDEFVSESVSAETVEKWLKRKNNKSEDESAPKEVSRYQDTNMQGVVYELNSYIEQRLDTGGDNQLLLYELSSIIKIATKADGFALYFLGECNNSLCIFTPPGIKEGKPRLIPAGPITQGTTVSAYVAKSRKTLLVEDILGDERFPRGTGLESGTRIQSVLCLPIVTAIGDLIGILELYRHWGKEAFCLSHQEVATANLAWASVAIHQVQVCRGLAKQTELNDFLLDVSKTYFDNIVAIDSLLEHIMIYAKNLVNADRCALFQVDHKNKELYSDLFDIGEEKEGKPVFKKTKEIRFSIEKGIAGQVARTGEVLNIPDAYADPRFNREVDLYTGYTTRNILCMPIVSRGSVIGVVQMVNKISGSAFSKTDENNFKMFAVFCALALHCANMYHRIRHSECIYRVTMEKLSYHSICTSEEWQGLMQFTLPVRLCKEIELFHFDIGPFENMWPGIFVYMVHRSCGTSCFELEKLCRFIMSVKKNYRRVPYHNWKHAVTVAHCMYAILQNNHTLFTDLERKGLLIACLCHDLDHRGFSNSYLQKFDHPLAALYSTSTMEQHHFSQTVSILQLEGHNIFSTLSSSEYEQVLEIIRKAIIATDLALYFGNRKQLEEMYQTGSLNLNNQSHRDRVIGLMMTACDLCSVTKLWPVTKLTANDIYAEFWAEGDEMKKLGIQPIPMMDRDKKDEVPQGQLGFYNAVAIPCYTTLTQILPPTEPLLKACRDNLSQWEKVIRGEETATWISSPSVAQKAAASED
T11 sequence (P21917 with tags, fused parts or gaps with the stated changes): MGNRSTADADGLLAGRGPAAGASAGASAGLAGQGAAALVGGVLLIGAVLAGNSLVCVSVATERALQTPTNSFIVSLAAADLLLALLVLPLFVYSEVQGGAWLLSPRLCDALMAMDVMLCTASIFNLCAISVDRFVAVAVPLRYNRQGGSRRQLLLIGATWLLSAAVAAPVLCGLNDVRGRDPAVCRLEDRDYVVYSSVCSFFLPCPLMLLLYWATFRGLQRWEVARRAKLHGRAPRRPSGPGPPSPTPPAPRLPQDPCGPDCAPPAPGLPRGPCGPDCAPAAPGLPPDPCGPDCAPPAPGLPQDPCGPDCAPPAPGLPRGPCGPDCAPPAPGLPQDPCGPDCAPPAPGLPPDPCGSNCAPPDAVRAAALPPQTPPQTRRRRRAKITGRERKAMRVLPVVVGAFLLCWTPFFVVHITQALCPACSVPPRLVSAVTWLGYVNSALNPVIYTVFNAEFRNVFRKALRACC

`OC[C@H]1O[C@@H](n2cnc3c(NCc4ccc(O)cc4)ncnc32)[C@H](O)[C@@H]1O` [T1-11, N ^6-(4-hydroxybenzyl)adenine riboside]: the “% Inhibition” value with Phosphodiesterase PDE4 was 0%; in experiment [4], -2%; in experiment [5], 10%; in [6], 16%; in experiment [10] it was 6%; in the experiment with GABAA, Non-Selective it was 5%. In addition, the “% Inhibition” value in experiment [12] was -1%. Further, the inhibition at 10 µM was 5% in [1]; 3% in [2]; 5% in experiment [3]; 6% on Opiate κ (OP2, KOP); -5% on Angiotensin AT1; 0% at Vasopressin V1A. Also, the inhibition at 10 µM in experiment [7] is 5%; in experiment [8] it was -5%; in [9], 1%; at Dopamine D4.7 it was 3%; on Dopamine D4.4 it was 8%; at Melanocortin MC5 it was 1%. Moreover, the inhibition at 10 µM stood at 5% in [11] and 3% at Angiotensin AT2. The “GTP binding compared to 2-Cl-IB-MECA (3 µM)” value on human A3R (100 µM T1-11) is “less than 50%”. At human A3R (A3 adenosine receptor, GTPγS binding, n.s. = not significant), the Function result is listed as “n.s”. In the experiment on mutant Htt aggregates, the “Formation of striatal Htt aggregates” value is “markedly reduced the formation of striatal Htt aggregates”.
